Experimental data published in US10723741B1, “DNA polymerase IIIC inhibitors and use thereof” (Acurx Pharmaceuticals, LLC, priority 2018, dated 2020).
Converted amounts (≈) assume the structure as drawn. Like-named read-outs stand apart in the source and are kept apart here.

Tested on: Staphylococcus aureus NRS384 (MRSA)
Test: Broth microdilution MIC, S. aureus NRS384 (MRSA)
Assay type: cell-based
Conditions: Staphylococcus aureus, broth microdilution, 37° C., 20 hours
Summary of the method: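 Broth microdilution in strain-specific test medium with ~5.0×10^5 cfu/ml inoculum, 1% DMSO and two-fold compound dilutions from 64 to 0.0625 μg/ml. Plates were held 20 hours at 37° C in ambient air. S. pneumoniae colonies were grown beforehand on blood agar in 5% CO2.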

[1] = MHIIB, read-out: MIC against S. aureus NRS 384 (MRSA)

Row | SMILES | MIC (read-out: MIC NRS 384 (MRSA)) [µg/mL] | MIC [1] [µg/mL]
1 | Cc1nn(C)c2c(=O)[nH]c(NCc3ccc(Cl)c(Cl)c3)nc12 [Compound 44, 5-((3,4-dichlorobenzyl)amino)-1,3-dimethyl-1H-pyrazolo[4,3-d]pyrimidin-7(6H)-one] | 2 (≈ 5.91 µM) | ≤ 1
2 | O=c1[nH]c(NCc2ccc(Cl)c(Cl)c2)nc2cn[nH]c12 [Compound 77, 5-((3,4-dichlorobenzyl)amino)-1H-pyrazolo[4,3-d]pyrimidin-7(6H)-one] | 8 (≈ 25.8 µM) | 
3 | COCCn1ncc2nc(NCc3ccc(Cl)c(Cl)c3)[nH]c(=O)c21 [Compound 126, 5-((3,4-dichlorobenzyl)amino)-1-(2-methoxyethyl)-1H-pyrazolo[4,3-d]pyrimidin-7(6H)-one] | 2 (≈ 5.43 µM) | 
4 | Cl.O=c1[nH]c(NCc2ccc(Cl)c(Cl)c2)nc2cnn(CC3CNCCO3)c12 (stereo not shown) [Compound 149, 5-((3,4-dichlorobenzyl)amino)-1-(morpholin-2-ylmethyl)-1H-pyrazolo[4,3-d]pyrimidin-7(6H)-one hydrochloride] | 32 | 
5 | Cl.Cl.O=c1[nH]c(NCc2ccc(Cl)c(Cl)c2)nc2cnn(CCOCCN3CCNCC3)c12 [Compound 167, 5-[(3,4-dichlorophenyl)methylamino]-1-[2-(2-piperazin-1-ylethoxy)ethyl]-6H-pyrazolo[4,3-d]pyrimidin-7-one] | > 64 | 
6 | CN(C)CCOCCn1ncc2nc(NCc3ccc(Cl)c(Cl)c3)[nH]c(=O)c21.Cl [Compound 211, 5-((3,4-dichlorobenzyl)amino)-1-(2-(2-(dimethylamino)ethoxy)ethyl)-1H-pyrazolo[4,3-d]pyrimidin-7(6H)-one hydrochloride] | 32 | 
7 | COC(=O)CCCCn1ncc2nc(NCc3ccc(Cl)c(Cl)c3)[nH]c(=O)c21 [Compound 218, methyl 5-[5-[(3,4-dichlorophenyl)methylamino]-7-oxo-6H-pyrazolo[4,3-d]pyrimidin-1-yl]pentanoate] | 1 (≈ 2.36 µM) | ≤ 1
8 | Cl.O=c1[nH]c(NCc2ccc(Cl)c(Cl)c2)nc2cnn(C3CCN(C4CCOCC4)CC3)c12 [Compound 242, 5-((3,4-dichlorobenzyl)amino)-1-(1-(tetrahydro-2H-pyran-4-yl)piperidin-4-yl)-1H-pyrazolo[4,3-d]pyrimidin-7(6H)-one hydrochloride] | 4 | 
9 | O=C(O)CCC(=O)N1CCC(n2ncc3nc(NCc4ccc(Cl)c(Cl)c4)[nH]c(=O)c32)CC1 [Compound 273, 4-(4-(5-((3,4-dichlorobenzyl)amino)-7-oxo-6,7-dihydro-1H-pyrazolo[4,3-d]pyrimidin-1-yl)piperidin-1-yl)-4-oxobutanoic Acid] | > 64 | 
10 | O=C([C@@H](O)[C@H](O)CO)N1CCC(n2ncc3nc(NCc4ccc(Cl)c(Cl)c4)[nH]c(=O)c32)CC1 [Compound 276, 5-((3,4-dichlorobenzyl)amino)-1-(1-((2S,3R)-2,3,4-trihydroxybutanoyl)piperidin-4-yl)-1H-pyrazolo[4,3-d]pyrimidin-7(6H)-one] | 64 (≈ 125 µM) | 

The remaining molecules from weak to strong by MIC (read-out: MIC NRS 384 (MRSA)), led by results:

Row | MIC (read-out: MIC NRS 384 (MRSA)) [µg/mL] | MIC [1] [µg/mL] | SMILES
11 | 1 (≈ 3.08 µM) | ≤ 1 | Cn1ncc2nc(NCc3ccc(Cl)c(Cl)c3)[nH]c(=O)c21 [Compound 2, 5-((3,4-Dichlorobenzyl)amino)-1-methyl-1H-pyrazolo[4,3-d]pyrimidin-7(6H)-one]
12 | 1 (≈ 2.59 µM) | ≤ 1 | O=c1[nH]c(NCc2ccc(Cl)c(Cl)c2)nc2cnn(-c3ccccc3)c12 [Compound 212, 5-[(3,4-dichlorophenyl)methylamino]-1-phenyl-6H-pyrazolo[4,3-d]pyrimidin-7-one]
13 | 1 (≈ 2.86 µM) | ≤ 1 | O=c1[nH]c(NCc2ccc(Cl)c(Cl)c2)nc2cnn(C3CC3)c12 [Compound 213, 1-Cyclopropyl-5-((3,4-dichlorobenzyl)amino)-1H-pyrazolo[4,3-d]pyrimidin-7(6H)-one]
14 | 1 (≈ 2.64 µM) | ≤ 1 | O=c1[nH]c(NCc2ccc(Cl)c(Cl)c2)nc2cnn(C3CCCC3)c12 [Compound 214, 1-cyclopentyl-5-((3,4-dichlorobenzyl)amino)-1H-pyrazolo[4,3-d]pyrimidin-7(6H)-one]
15 | 0.5 (≈ 1.43 µM) | ≤ 1 | C=CCn1ncc2nc(NCc3ccc(Cl)c(Cl)c3)[nH]c(=O)c21 [Compound 56, 1-allyl-5-((3,4-dichlorobenzyl)amino)-1H-pyrazolo[4,3-d]pyrimidin-7(6H)-one]
